Experimental data reported in ChEMBL document CHEMBL3352310, “A perspective on targeting non-structural proteins to combat neglected tropical diseases: Dengue, West Nile and Chikungunya viruses” (Eur J Med Chem, 2014).
Peptide text beside a SMILES is read from it. * marks the point of attachment. Bz = O=C(c1ccccc1)*

Legend:
Genome polyprotein [1] = target: Genome polyprotein (dengue virus type 2, UniProt P12823); experiment: Inhibition of dengue virus-2 NS2B-NS3 protease
dengue virus type 1 = experiment: Antiviral activity against Dengue virus 1; assay type: functional, organism-based
dengue virus type 2 = experiment: Antiviral activity against Dengue virus 2; assay type: functional, organism-based
dengue virus type 3 = experiment: Antiviral activity against Dengue virus 3; assay type: functional, organism-based
dengue virus type 4 = experiment: Antiviral activity against Dengue virus 4; assay type: functional, organism-based
Genome polyprotein [2] = target: T1, Genome polyprotein (dengue virus type 2, UniProt Q91H74); experiment: Inhibition of dengue virus-1 NS2B-NS3 protease; design: species or system dengue virus type 1
Genome polyprotein [3] = target: T1, Genome polyprotein; experiment: Inhibition of dengue virus-3 NS2B-NS3 protease; design: species or system dengue virus type 3
Genome polyprotein [4] = target: T1, Genome polyprotein; experiment: Inhibition of dengue virus-4 NS2B-NS3 protease; design: species or system dengue virus type 4
Genome polyprotein [5] = target: T1, Genome polyprotein; experiment: Inhibition of dengue virus NS2B-NS3 protease
Chikungunya virus = experiment: Antiviral activity against Chikungunya virus assessed as inhibition of viral replication; assay type: functional
[6] = Inhibition of Dengue virus-3 N7-methyltransferase; design: species or system dengue virus type 3
[7] = Inhibition of Dengue virus-3 2'-O-methyltransferase; design: species or system dengue virus type 3
[8] = Inhibition of Dengue virus RNA-directed RNA polymerase NS5
Genome polyprotein [9] = target: T2, Genome polyprotein (West Nile virus, UniProt P06935); experiment: Inhibition of West Nile virus NS2B-NS3 protease
Dengue virus [10] = experiment: Antiviral activity against Dengue virus assessed as inhibition of viral replication; assay type: functional, organism-based
Genome polyprotein [11] = target: T2, Genome polyprotein; experiment: Non-competitive inhibition of West Nile virus NS2B-NS3 protease
Dengue virus [12] = experiment: Antiviral activity against Dengue virus assessed as inhibition of viral RNA replication; assay type: functional, organism-based
Dengue virus [13] = experiment: Antiviral activity against Dengue virus; assay type: functional, organism-based

N#Cc1ccc(OC(=O)c2ccc(NC(=N)N)cc2)cc1
IC50 (Genome polyprotein [1]): 37900 nM | Ki (Genome polyprotein [1]): 31100 nM

O=C1c2c(O)ccc([N+](=O)[O-])c2C(=O)c2c([N+](=O)[O-])ccc(O)c21
EC50 (dengue virus type 1): 5960 nM | EC50 (dengue virus type 2): 440 nM | EC50 (dengue virus type 3): 3080 nM | EC50 (dengue virus type 4): 880 nM

Cc1ccc(S(=O)(=O)Nc2cc(SCC(=O)O)c(O)c3ccccc23)cc1[N+](=O)[O-]
EC50 (dengue virus type 1): 970 nM | EC50 (dengue virus type 2): 980 nM | EC50 (dengue virus type 3): 2430 nM | EC50 (dengue virus type 4): 740 nM

N=C(N)Nc1ccc(O[C@H]2C[C@@H](Oc3ccc(NC(=N)N)cc3NC(=N)N)[C@H](NC(=N)N)C[C@@H]2NC(=N)N)c(NC(=N)N)c1
IC50 (Genome polyprotein [1]): 1000 nM | IC50 (Genome polyprotein [2]): 1000 nM | IC50 (Genome polyprotein [3]): 1000 nM | IC50 (Genome polyprotein [4]): 1000 nM

COc1ccc(-c2nnc(C(Cc3ccccc3)n3sc4ccccc4c3=O)o2)cc1 (stereo not drawn)
IC50 (Genome polyprotein [5]): 3750 nM

CCOc1ccc(/C=N/NC(=O)/C=C/c2ccc(C(C)(C)C)cc2)cc1OCC
IC50 (Chikungunya virus): 3200 nM

N=C(N)Nc1ccc(OC(=O)c2ccc(NC(=N)N)cc2)cc1
IC50 (Genome polyprotein [1]): 7700 nM | Ki (Genome polyprotein [1]): 2000 nM

NC(CCSC[C@H]1O[C@@H](n2ccc3c(NCc4cccc(Cl)c4)ncnc32)C(O)C1O)C(=O)O (stereo partly drawn)
Ki [6]: 820 nM | Ki [7]: 170 nM

O=c1cc(-c2ccc(Oc3c(O)cc4occ(-c5ccc(O)cc5)c(=O)c4c3O)cc2)oc2cc(O)cc(O)c12
IC50 [8]: 260 nM

COc1ccc(-c2coc3c(-c4cc(-c5cc(=O)c6c(O)cc(O)cc6o5)ccc4O)c(O)cc(O)c3c2=O)cc1
IC50 [8]: 750 nM

N=C(N)NCCC[C@H](NC(=O)[C@H](CCCCN)NC(=O)[C@H](CCCCN)NC(=O)C1CC1)C(=O)O
IC50 (Genome polyprotein [9]): 380 nM

O=c1c(OC2O[C@H](CO)[C@@H](O)[C@H](O)[C@H]2O)c(-c2ccc(OC3O[C@H](CO)[C@@H](O)[C@H](O)[C@H]3O)c(O)c2)oc2cc(O)cc(O)c12 (stereo partly drawn)
IC50 (Dengue virus [10]): 1700 nM

Oc1c(C(Nc2nccs2)c2cccc(OCc3ccccc3)c2)ccc2cccnc12 (stereo not drawn)
IC50 (Genome polyprotein [9]): 2010 nM

CCc1ccc(NC(=O)CSc2nc3ccc(NC(=O)CSc4nnc(-c5ccccc5)n4C)cc3s2)cc1
IC50 (Genome polyprotein [9]): 3400 nM

Cc1ccc2c(c1)-c1c(=O)nc(SCc3ccccc3)[nH][n+]1C(c1ccc(Cl)cc1)N2 (stereo not drawn)
IC50 (Genome polyprotein [11]): 5410 nM

CCCSc1nnc(N2C(=O)C(O)=C(C(=O)c3ccc(Cl)cc3)C2c2ccc(Cl)cc2)s1 (stereo not drawn)
IC50 (Genome polyprotein [11]): 2200 nM

CC(C)C[C@@H]1NC(=O)[C@H](CCCN)NC(=O)[C@H](C(C)C)NC(=O)[C@H](Cc2ccc(O)cc2)N[C@@H](CCC(=O)O)C(=O)N[C@@H](CC(N)=O)C(=O)[C@@H](Cc2ccccc2)NC(=O)[C@H](Cc2ccccc2)NC(=O)[C@@H]2CCCN2C(=O)[C@@H](Cc2ccccc2)NC1=O
Ki (Genome polyprotein [9]): 2000 nM

N=C(N)N[C@H]1CC[C@H](CNC(=O)[C@H](CCCCN)NC(=O)[C@H](CCCCN)NC(=O)Cc2ccc(Cl)c(Cl)c2)CC1
Ki (Genome polyprotein [9]): 130 nM

O=c1cc(-c2ccccc2)oc2ccc(-c3cn[nH]n3)cc12
IC50 (Genome polyprotein [5]): 69000 nM

Cc1cc(C)c2c(c1)OC(c1ccc(N(C)C)cc1)CC2=O (stereo not drawn)
IC50 (Genome polyprotein [5]): 121000 nM

Cc1ccc(C(NN=C(N)N)[PH](=O)O)cc1 (stereo not drawn)
IC50 (Genome polyprotein [5]): 14000 nM

N=C(N)NCCC[C@H](NC(=O)[C@H](CCCCN)NC(=O)[C@H](CCCCN)NC(=O)c1ccccc1)C(=O)O (Bz-Lys-Lys-Arg-OH)
IC50 (Genome polyprotein [9]): 420 nM

NC(=O)[C@H](Cc1c[nH]c2ccccc12)NC(=O)[C@H](CS)NC(=O)[C@H](Cc1ccc(O)cc1)NC(=O)[C@@H](N)Cc1c[nH]c2ccccc12 (H-WYCW-NH2)
Ki (Genome polyprotein [1]): 4800 nM | Ki (Genome polyprotein [2]): 4200 nM | Ki (Genome polyprotein [3]): 24400 nM | Ki (Genome polyprotein [4]): 11200 nM

O=c1c(O[C@@H]2O[C@@H](CO)[C@H](O)[C@H]2O)c(-c2ccc(O)c(O)c2)oc2cc(O)cc(O)c12 [AVICULARIN]
IC50 (Dengue virus [10]): 1700 nM

C=C(C)[C@@H]1CC[C@]2(C(=O)O)CC[C@]3(C)[C@H](CC[C@@H]4[C@@]5(C)CC[C@H](O)C(C)(C)[C@@H]5CC[C@]43C)[C@@H]12 [BETULINIC ACID]
IC50 (Dengue virus [10]): 1700 nM

Cc1nc(Nc2ncc(C(=O)Nc3c(C)cccc3Cl)s2)cc(N2CCN(CCO)CC2)n1 [DASATINIB]
EC50 (Dengue virus [12]): 110 nM

O=c1c(O[C@@H]2O[C@H](CO)[C@H](O)[C@H](O)[C@H]2O)c(-c2ccc(O)c(O)c2)oc2cc(O)cc(O)c12 [HYPEROSIDE]
IC50 (Dengue virus [10]): 1700 nM

COc1cc2c(cc1OC)-c1cc3ccc(OC)c(OC)c3c[n+]1CC2 [PALMITINE]
IC50 (Genome polyprotein [11]): 96000 nM

C[C@@H]1O[C@@H](Oc2c(-c3ccc(O)c(O)c3)oc3cc(O)cc(O)c3c2=O)[C@H](O)[C@H](O)[C@H]1O [QUERCITRIN]
IC50 (Dengue virus [10]): 1700 nM

NC(=O)c1ncn([C@@H]2O[C@H](CO)[C@@H](O)[C@H]2O)n1 [RIBAVIRIN]
EC50 (Dengue virus [13]): 49000 nM

C[C@@H]1O[C@@H](OC[C@H]2O[C@@H](Oc3c(-c4ccc(O)c(O)c4)oc4cc(O)cc(O)c4c3=O)[C@H](O)[C@@H](O)[C@@H]2O)[C@H](O)[C@H](O)[C@H]1O [RUTIN]
IC50 (Dengue virus [10]): 1700 nM

CN1CCN(CCOc2cc(OC3CCOCC3)c3c(Nc4c(Cl)ccc5c4OCO5)ncnc3c2)CC1 [SARACATINIB]
EC50 (Dengue virus [12]): 1600 nM

O=c1c(O)c(-c2ccc(O[C@@H]3O[C@H](CO)[C@@H](O)[C@H](O)[C@H]3O)c(O)c2)oc2cc(O)cc(O)c12 [SPIRAEOSIDE]
IC50 (Dengue virus [10]): 1700 nM
